In patent publication US20220323391A1, “COMBINATION OF A CHEMOTHERAPEUTIC AGENT AND ALPHA-LACTOGLUBULIN-OLEIC ACID COMPLEX FOR CANCER THERAPY” (HAMLET PHARMA AB, priority 2019, published 2022):
Entries after “also recorded” stand apart in the source; their conditions may differ.

Tested on: MB49 mouse bladder carcinoma cells
Assay: murine MB49 bladder cancer model, intravesical treatment
Assay type: in vivo
Conditions: for Tumor growth / tumor progression (bladder weight, bladder size, tumor size) compared to sham treated mice: chemotherapeutic agent alone, 25 μg intravesical, days 3, 5, 7, 9 and 11; for Tumor growth / tumor recurrence at long-term follow up: single agent (alpha1-oleate 1.7 mM, or MMC or Epirubicin 25 μg), after 4 weeks
Protocol: MB49 (RRID:CVCL_7076) cells were provided by Sara Mangsbo, Uppsala University, Sweden. […] C57BL/6 female mice were bred at the Department of Laboratory Medicine, Lund University and used at ages from 7 to 12 weeks. […] On day 0, the bladder was emptied and preconditioned by intravesical instillation of 100 μl of poly-L-lysine solution (0.1 mg/ml) through a soft polyethylene catheter (Clay Adams) with an outer diameter of 0.61 mm. After 30 minutes, MB49 mouse bladder carcinoma cells (2×10^5 cells in 50 μl media) were instilled. On days 3, 5, 7, 9 and 11, mice were randomly assigned and instilled to the alpha1-oleate (1.7 mM or 8.5 mM), chemotherapeutic drugs (MMC 25 μg, epirubicin 25 μg), combination of alpha1-oleate with chemotherapeutic agent or sham PBS treatment group. The catheter was left in place for about one minute, but as the mice remained under anesthesia, the time to voiding (dwelling time) of the substance was 2-3 hours. Groups of 5-6 mice for each treatment and control were sacrificed at day 12. Follow up groups of 5-8 mice were sacrificed at week 4 and week 8. Bladders were imaged and processed for histology or RNA extraction. Two independent experiments were performed for each condition. All experiments were performed with mycoplasma-free cells.
Bladders were embedded in O.C.T. compound (VWR), and successive 5 μm sections were collected from the center of each bladder and placed on positively-charged microscope slides (Superfrost/Plus; Thermo Fisher Scientific). […] Images was captured using the AX10 microscope (Carl Zeiss). The tumor circumferences were measured for analysis of the tumor area using ImageJ software.
The effects of alpha1-oleate and Mitomycin C were investigated in the murine MB49 bladder cancer model (for study design see FIG. 19A). Bladder cancer was established by intra-vesical instillation of MB49 cells and treatment was initiated on day 3. The treatment group received alpha1-oleate (1.7 mM or 8.5 mM), MMC (0.1 mL, 25 ug/dose) or a combination of alpha1-oleate (1.7 mM or 8.5 mM) with MMC (0.1 mL, 25 ug/dose). Instillations were performed on days 3, 5, 7, 9 and 11 and sham treated mice received PBS. Bladders were harvested at sacrifice on day 12 and tumor development was quantified as bladder weight, bladder size, tumor size and pathology score (FIG. 21c-f).

Row | SMILES | Therapeutic effect of Epirubicin alone relative to alpha1-oleate (Epirubicin 25 μg vs alpha1-oleate 1.7 mM, day 12, p=0.97) | Tumor growth / tumor progression (bladder weight, bladder size, tumor size) compared to sham treated mice (day 12) | Tumor growth / tumor recurrence at long-term follow up | Tumor growth / tumor progression (bladder weight, bladder size, tumor size) compared to sham treated mice (day 12, listed as MMC) | Tumor growth / tumor progression (bladder weight, bladder size, tumor size) compared to sham treated mice (day 12, listed as mitomycin) | Tumor growth / tumor recurrence at long-term follow up (listed as MMC)
1 | COc1cccc2c1C(=O)c1c(O)c3c(c(O)c1C2=O)C[C@@](O)(C(=O)CO)C[C@@H]3O[C@H]1C[C@H](N)[C@@H](O)[C@H](C)O1 [Epirubicin] | comparable to that of alpha1-oleate | Tumor progression was delayed; also recorded: reduction in tumor size | Evidence of tumor recurrence; also recorded: showed an increase in tumor growth |  |  | 
2 | CO[C@@]12[C@H](COC(N)=O)C3=C(C(=O)C(C)=C(N)C3=O)N1C[C@@H]1N[C@@H]12 [Mitomycin C] |  | Tumor progression was delayed |  | reduction in tumor size | attenuated to a similar extent | Evidence of tumor recurrence; also recorded: showed an increase in tumor growth
